Test results from ChEMBL document CHEMBL1149658, “Pyridinylimidazole inhibitors of Tie2 kinase” (Bioorg Med Chem Lett, 2007).

Key:
[1] = Inhibition of P38 kinase; set-up: species or system Homo sapiens
[2] = target: Angiopoietin-1 receptor (Homo sapiens, UniProt Q02763); test: Inhibition of Tie2 kinase by autophosphorylation assay; assay type: functional
[3] = test system: Mus musculus; test: Reduction in bFGF-induced angiogenesis in Matrigel mouse model at 50 mg/kg, ip bid; assay type: functional; set-up: scale not given: the % may be the effect or the level left; conditions: route intraperitoneal
[4] = test system: Mus musculus; test: Reduction in bFGF-induced angiogenesis in Matrigel mouse model at 25 mg/kg, ip bid; assay type: functional; set-up: scale not given: the % may be the effect or the level left; conditions: route intraperitoneal
[5] = test system: MOPC 315; test: Efficacy in mouse MOPC315 cells xenografted mouse assessed as delay in tumor growth; assay type: functional, cell-based

Sequence of Angiopoietin-1 receptor (Q02763 whole entry): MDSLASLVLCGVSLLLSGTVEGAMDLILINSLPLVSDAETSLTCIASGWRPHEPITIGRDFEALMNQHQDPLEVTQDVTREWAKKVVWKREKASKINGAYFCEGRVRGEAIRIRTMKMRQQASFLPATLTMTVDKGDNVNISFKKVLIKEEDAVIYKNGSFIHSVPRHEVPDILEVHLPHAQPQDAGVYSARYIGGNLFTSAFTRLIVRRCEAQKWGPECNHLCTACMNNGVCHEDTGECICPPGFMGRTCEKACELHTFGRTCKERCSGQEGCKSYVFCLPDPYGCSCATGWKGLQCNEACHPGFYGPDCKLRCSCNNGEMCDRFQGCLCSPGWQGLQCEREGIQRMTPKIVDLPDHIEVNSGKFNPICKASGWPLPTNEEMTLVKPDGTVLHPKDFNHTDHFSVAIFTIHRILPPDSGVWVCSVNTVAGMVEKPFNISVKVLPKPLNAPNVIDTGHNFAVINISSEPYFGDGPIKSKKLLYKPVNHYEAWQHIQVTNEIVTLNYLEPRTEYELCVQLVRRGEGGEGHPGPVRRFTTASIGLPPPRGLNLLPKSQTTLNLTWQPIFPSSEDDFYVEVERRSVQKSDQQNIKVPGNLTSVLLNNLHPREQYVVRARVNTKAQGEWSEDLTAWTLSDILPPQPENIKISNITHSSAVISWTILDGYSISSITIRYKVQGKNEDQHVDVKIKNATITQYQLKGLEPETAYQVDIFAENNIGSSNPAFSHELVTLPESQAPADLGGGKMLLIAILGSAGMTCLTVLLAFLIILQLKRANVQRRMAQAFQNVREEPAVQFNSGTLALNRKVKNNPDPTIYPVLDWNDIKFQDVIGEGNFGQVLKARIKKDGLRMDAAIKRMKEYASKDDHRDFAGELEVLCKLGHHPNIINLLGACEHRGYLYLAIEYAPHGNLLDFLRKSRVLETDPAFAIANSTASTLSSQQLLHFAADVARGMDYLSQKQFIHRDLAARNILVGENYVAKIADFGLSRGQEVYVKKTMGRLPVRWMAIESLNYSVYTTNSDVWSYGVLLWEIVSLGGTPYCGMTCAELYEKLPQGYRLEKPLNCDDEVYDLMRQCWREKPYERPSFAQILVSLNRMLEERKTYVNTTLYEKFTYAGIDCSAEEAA

IC50 [1] [µM] | IC50 [2] [µM] | Compound | Activity [3] [%] | Activity [4] [%] | Activity [5]
16 | 20 | COc1ccc2cc(-c3nc(-c4ccc([S+](C)[O-])cc4)n(C)c3-c3ccncc3)ccc2c1 (stereo not given) | – | – | –
> 16 | 3.89 | COc1ccc2cc(-c3c(-c4ccncc4)nc(-c4ccc([S+](C)[O-])cc4)n3CC(C)C)ccc2c1 (stereo not given) | – | – | –
> 16 | 5.37 | CCn1c(-c2ccc([S+](C)[O-])cc2)nc(-c2ccncc2)c1-c1ccc2cc(OC)ccc2c1 (stereo not given) | – | – | –
0.3 | 0.3 | C[S+]([O-])c1ccc(-c2nc(-c3ccc4ccccc4c3)c(-c3ccncc3)[nH]2)cc1 (stereo not given) | – | – | –
> 16 | 0.437 | CCCn1c(-c2ccc([S+](C)[O-])cc2)nc(-c2ccncc2)c1-c1ccc2cc(OC)ccc2c1 (stereo not given) | – | – | –
0.741 | 0.219 | Cc1ccc2cc(-c3nc(-c4ccc([S+](C)[O-])cc4)[nH]c3-c3ccncc3)ccc2c1 (stereo not given) | – | – | –
16.5 | 5.5 | C[S+]([O-])c1ccc(-c2nc(-c3ccc4cc(-c5ccccc5)ccc4c3)c(-c3ccncc3)[nH]2)cc1 (stereo not given) | – | – | –
4.57 | 0.339 | C[S+]([O-])c1ccc(-c2nc(-c3ccc4cc(Br)ccc4c3)c(-c3ccncc3)[nH]2)cc1 (stereo not given) | – | – | –

Compound | IC50 [1] [µM] | IC50 [2] [µM] | Activity [3] [%] | Activity [4] [%] | Activity [5]
COc1ccc2cc(-c3c(-c4ccncc4)nc(-c4ccc([S+](C)[O-])cc4)n3C)ccc2c1 (stereo not given) | 16 | 0.06 | 30 | 5 | –
COc1ccc2cc(-c3nc(-c4ccc([S+](C)[O-])cc4)[nH]c3-c3ccncc3)ccc2c1 (stereo not given) | 50 | 0.25 | 70 | 41 | Dose-dependent effect
